The text below walks through data of patent EP4740948A1 (Dong Wha Pharm. Co., Ltd., priority 2023, dated 2025).

In general, inhibition refers to the share of the control response that was lost under treatment.

One assay deals with EZH1 (Homo sapiens, UniProt Q92800). The experiment in a line: AlphaLISA enzyme activity inhibition, EZH1. It is filed as biochemical. The following applies: 5nM test substance. Here is the method: (§1) In order to confirm the EZH1 and/or EZH2 activity inhibitory effect of the 1,3-benzodioxole derivative compounds represented by chemical formula I of the present invention, the activity was measured using an AlphaLISA test method. The test substance dissolved in dimethylsulfoxide (DMSO) was diluted in a test solution (20 mM Tris pH 8.0, 0.1% BSA, 0.01% Triton X-100, 0.5 mM DTT) according to a final treatment concentration (5 nM or 10 nM) and mixed with EZH1 and EZH2, respectively, and then histone H3 peptide and S-adenosylmethionine (SAM) were added to initiate an enzyme reaction. An acceptor bead was added thereto after reaction for two hours and subjected to an additional reaction for one hour, after which a donor bead was added thereto. After an additional reaction for 30 minutes, the reaction was completed. An activity was measured using the Magellan program on a Spark10M instrument. DMSO was used as a control group, an inhibition rate of enzyme activity was calculated using a following equation, and the results thereof are shown in Table 1 below. [formula]
Chain of EZH1 (Q92800 whole entry, species assumed): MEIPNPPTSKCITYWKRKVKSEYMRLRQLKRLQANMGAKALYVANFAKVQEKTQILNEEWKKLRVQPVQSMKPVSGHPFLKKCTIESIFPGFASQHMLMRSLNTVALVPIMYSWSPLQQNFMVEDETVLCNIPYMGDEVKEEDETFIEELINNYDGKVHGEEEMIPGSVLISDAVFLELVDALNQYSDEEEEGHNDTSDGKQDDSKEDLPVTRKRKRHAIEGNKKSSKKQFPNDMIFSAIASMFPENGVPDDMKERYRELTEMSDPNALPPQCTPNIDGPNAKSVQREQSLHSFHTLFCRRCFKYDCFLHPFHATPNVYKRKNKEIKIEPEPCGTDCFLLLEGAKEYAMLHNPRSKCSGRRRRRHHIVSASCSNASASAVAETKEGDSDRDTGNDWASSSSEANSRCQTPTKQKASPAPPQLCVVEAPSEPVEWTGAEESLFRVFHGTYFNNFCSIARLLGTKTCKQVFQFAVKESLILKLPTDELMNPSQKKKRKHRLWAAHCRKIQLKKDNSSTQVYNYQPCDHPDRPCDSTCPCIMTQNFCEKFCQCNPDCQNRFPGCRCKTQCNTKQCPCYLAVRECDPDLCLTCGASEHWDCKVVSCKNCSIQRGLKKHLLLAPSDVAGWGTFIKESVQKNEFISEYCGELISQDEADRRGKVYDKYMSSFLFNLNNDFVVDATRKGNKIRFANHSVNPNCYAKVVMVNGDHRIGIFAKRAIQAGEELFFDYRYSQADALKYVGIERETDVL
Chain of EZH1 (O75530 whole entry partner, species assumed): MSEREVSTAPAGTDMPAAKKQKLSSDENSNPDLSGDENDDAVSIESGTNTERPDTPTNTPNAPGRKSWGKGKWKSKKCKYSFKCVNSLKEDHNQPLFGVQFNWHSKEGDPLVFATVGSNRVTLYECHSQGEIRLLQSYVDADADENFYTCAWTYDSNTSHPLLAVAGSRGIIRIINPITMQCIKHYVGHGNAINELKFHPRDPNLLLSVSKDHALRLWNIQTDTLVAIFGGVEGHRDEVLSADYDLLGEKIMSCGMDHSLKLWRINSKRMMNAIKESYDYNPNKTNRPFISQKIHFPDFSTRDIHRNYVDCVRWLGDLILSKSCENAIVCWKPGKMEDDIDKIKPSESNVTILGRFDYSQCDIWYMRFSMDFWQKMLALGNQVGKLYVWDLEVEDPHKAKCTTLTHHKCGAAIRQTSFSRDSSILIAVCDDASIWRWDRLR
Chain of EZH1 (Q15022 whole entry partner, species assumed): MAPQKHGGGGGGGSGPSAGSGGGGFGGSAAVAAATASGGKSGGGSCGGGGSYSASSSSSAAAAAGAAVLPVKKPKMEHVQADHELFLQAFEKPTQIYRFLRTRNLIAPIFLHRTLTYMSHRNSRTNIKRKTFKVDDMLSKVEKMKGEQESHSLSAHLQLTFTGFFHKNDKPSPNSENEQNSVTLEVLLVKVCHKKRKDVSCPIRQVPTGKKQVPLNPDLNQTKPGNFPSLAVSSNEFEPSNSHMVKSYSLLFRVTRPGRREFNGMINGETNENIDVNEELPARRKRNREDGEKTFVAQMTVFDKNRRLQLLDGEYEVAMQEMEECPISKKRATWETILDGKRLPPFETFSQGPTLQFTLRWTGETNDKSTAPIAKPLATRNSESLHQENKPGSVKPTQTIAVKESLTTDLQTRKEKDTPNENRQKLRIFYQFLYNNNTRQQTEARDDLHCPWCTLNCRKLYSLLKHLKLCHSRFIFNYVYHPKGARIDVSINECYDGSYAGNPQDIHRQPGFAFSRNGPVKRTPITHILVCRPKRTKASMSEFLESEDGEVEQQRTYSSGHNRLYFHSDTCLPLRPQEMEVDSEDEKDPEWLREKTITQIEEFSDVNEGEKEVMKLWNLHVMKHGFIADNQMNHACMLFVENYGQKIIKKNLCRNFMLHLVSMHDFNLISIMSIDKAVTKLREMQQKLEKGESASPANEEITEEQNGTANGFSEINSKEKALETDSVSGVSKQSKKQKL

A further assay relates to G401 cells. The assay can be described thus: Cancer cell proliferation inhibition (Cell Counting Kit-8), rhabdoid tumor cell line. Conditions: Homo sapiens, G-401, 264 h, 1000 nM, cultured seven to 11 days; read-out: % inhibition rate G401. Format: cell-based. An excerpt: (§2) Among solid cancer cells, in G401 cells in which expression of SMARCB1, which is a member of switch/sucrosenon-fermenting (SWI/SNF), is defective as a cell line of a rhabdoid tumor in which a therapeutic effect may be expected through dual inhibition of EZH1/2, and MKN-45 cells in which expression of ARID1A, which is a member of SWI/SNF, is defective as a gastric cancer cell line, a proliferation inhibitory ability of the 1,3-benzodioxole derivative compounds represented by chemical formula I of the present invention was evaluated.
(§3) Each cell line (G401 cell, MKN-45 cell, Lovo cell, SW-13 cell, MIA-PaCa-2, NCI-H1299) of Table 2 below was cultured using RPMI1640, McCoy's 5a, L-15 or DMEM containing 10% fetal bovine serum, and the cells were seeded into wells of a 96-well culture dish at 100 to 1,000 cells each, and a test substance 1000 nM was cultured for seven to 11 days after drug treatment. After the culture, the cells were measured according to a manufacturer's instructions using Cell Counting Kit-8, and a cell proliferation inhibitory effect (% inhibition rate) of the test substance was obtained.
(§4) The cell proliferation inhibitory effect (% inhibition rate) of the test substance was calculated using a following equation. % inhibition rate = {1−(testgroup/controlgroup)} X 100 [formula]

The target in another assay is EZH2 (Homo sapiens, UniProt Q15910). The assay can be described thus: AlphaLISA enzyme activity inhibition, EZH2. It is filed as biochemical. Conditions: 5nM test substance. Here is the method:
as §1
Background: Bead proximity is the source of the signal in Alpha formats.

The test system of a further assay is NCI-H1299 cells. The assay can be described thus: Cancer cell proliferation inhibition (Cell Counting Kit-8), lung cancer cell line. Conditions: Homo sapiens, NCI-H1299, 264 h, 1000 nM, cultured seven to 11 days; read-out: % inhibition rate NCI-H129 9. Format: cell-based. Here is the method: (§5) In addition, as one example of solid cancer in which an overexpression of EZH2 and a consequent disease association therebetween is reported, a proliferation inhibitory activity of the 1,3-benzodioxole derivative compounds represented by chemical formula I of the present invention was evaluated in Lovo cells as a colorectal cancer cell line, SW-13 cells as an adrenal cancer cell line, MIA-PaCa-2 cells as a pancreatic cancer cell line, and NCI-H1299 cells as a lung cancer cell line.
as §3, §4

The next assay relates to MIA-PaCa-2 cells. The experiment in a line: Cancer cell proliferation inhibition (Cell Counting Kit-8), pancreatic cancer cell line. Format: cell-based. Conditions: Homo sapiens, MIA PaCa-2, 264 h, 1000 nM, cultured seven to 11 days; read-out: % inhibition rate MIA-Paca2. The protocol:
as §5, §3, §4
(Formazan colour is commonly taken as a measure of viable cells.)

A further assay deals with SW-13 cells. The assay can be described thus: Cancer cell proliferation inhibition (Cell Counting Kit-8), adrenal cancer cell line. It is filed as cell-based. Conditions: Homo sapiens, SW13, 264 h, 1000 nM, cultured seven to 11 days; read-out: % inhibition rate SW-13. Here is the method: as §5, §3, §4
For a further assay, the system named is MKN-45 cells. The experiment in a line: Cancer cell proliferation inhibition (Cell Counting Kit-8), gastric cancer cell line. Format: cell-based. Conditions: Homo sapiens, MKN-45, 264 h, 1000 nM, cultured seven to 11 days; read-out: % inhibition rate MKN -45.
Excerpt: as §2, §3, §4

The test system of a further assay is Lovo cells. The assay can be described thus: Cancer cell proliferation inhibition (Cell Counting Kit-8), colorectal cancer cell line. Format: cell-based. Conditions: Homo sapiens, LoVo, 264 h, 1000 nM, cultured seven to 11 days; read-out: % inhibition rate LoVo. Here is the method: as §5, §3, §4

Chain of EZH2 (Q15910 whole entry, species assumed): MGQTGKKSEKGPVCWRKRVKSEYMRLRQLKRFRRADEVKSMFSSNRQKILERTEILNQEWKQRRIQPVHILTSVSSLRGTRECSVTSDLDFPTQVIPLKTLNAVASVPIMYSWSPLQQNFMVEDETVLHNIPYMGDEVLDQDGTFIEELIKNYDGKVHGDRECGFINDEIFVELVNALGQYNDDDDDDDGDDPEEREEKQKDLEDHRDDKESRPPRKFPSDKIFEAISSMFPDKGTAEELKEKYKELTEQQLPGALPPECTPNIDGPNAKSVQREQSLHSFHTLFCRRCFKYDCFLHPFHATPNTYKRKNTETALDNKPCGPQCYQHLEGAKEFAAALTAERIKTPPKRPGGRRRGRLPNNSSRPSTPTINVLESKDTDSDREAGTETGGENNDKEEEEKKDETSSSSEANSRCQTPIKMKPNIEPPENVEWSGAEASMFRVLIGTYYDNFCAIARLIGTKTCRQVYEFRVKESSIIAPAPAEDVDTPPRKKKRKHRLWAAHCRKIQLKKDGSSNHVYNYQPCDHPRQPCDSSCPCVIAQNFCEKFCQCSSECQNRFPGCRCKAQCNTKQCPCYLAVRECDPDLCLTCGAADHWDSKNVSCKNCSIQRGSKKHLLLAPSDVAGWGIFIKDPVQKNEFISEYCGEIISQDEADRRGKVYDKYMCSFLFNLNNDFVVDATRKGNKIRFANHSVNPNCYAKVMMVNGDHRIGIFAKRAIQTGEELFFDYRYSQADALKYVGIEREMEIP
Chain of EZH2 (O75530 whole entry partner, species assumed): as the sequence (O75530 whole entry partner, species assumed) above
Chain of EZH2 (Q15022 whole entry partner, species assumed): as the sequence (Q15022 whole entry partner, species assumed) above

For `CSc1cc(C)[nH]c(=O)c1CNC(=O)c1cc(-c2ccc(N3CCC(F)(F)CC3)nc2)c2c(c1C)OC(C)([C@H]1CC[C@H](N(C)C)CC1)O2` (relative stereo) [Compound 3, 7-(6-(4,4-difluoropiperidin-1-yl)pyridin-3-yl)-2-(trans-4-(dimethylamino)cyclohexyl)-2,4-dimethyl-N-((6-methyl-4-(methylthio)-2-oxo-1,2-dihydropyridin-3-yl)methyl)benzo[d][1,3]dioxole-5-carboxamide], the inhibition at 0.005 µM turned out to be 73.5% against EZH1 and 66.5% on EZH2. Moreover, the inhibition at 1 µM is 30 to 70% in the assay on G401 cells; 30 to 70% in the assay on NCI-H1299 cells; not above 30% with MIA-PaCa-2 cells; 30 to 70% in the assay with SW-13 cells; not above 30% with MKN-45 cells; 30 to 70% in the assay on Lovo cells.

For `CSc1cc(C)[nH]c(=O)c1CNC(=O)c1cc(-c2cnc(N3CCCCC3)nc2)c2c(c1C)OC(C)([C@H]1CC[C@H](N(C)C)CC1)O2` (relative stereo) [Compound 4, 2-(trans-4-(dimethylamino)cyclohexyl)-2,4-dimethyl-N-((6-methyl-4-(methylthio)-2-oxo-1,2-dihydropyridin-3-yl)methyl)-7-(2-(piperidin-1-yl)pyrimidin-5-yl)benzo[d][1,3]dioxole-5-carboxamide], the inhibition at 0.005 µM at EZH1 worked out at 74%; at EZH2 it was 77.4%. Moreover, the inhibition at 1 µM in the assay with G401 cells is 30 to 70%; in the assay with NCI-H1299 cells it was not above 30%; with MIA-PaCa-2 cells, not above 30%; in the assay with SW-13 cells, 30 to 70%; with MKN-45 cells it was not above 30%; with Lovo cells, not below 70%.

As for `CSc1cc(C)[nH]c(=O)c1CNC(=O)c1cc(-c2cnc(N3CCCC3)nc2)c2c(c1C)OC(C)([C@H]1CC[C@H](N(C)C)CC1)O2` (relative stereo) [Compound 5, 2-(trans-4-(dimethylamino)cyclohexyl)-2,4-dimethyl-N-((6-methyl-4-(methylthio)-2-oxo-1,2-dihydropyridin-3-yl)methyl)-7-(2-(pyrrolidin-1-yl)pyrimidin-5-yl)benzo[d][1,3]dioxole-5-carboxamide], the results for the inhibition at 0.005 µM on EZH1 and at EZH2 were 95.1% and 99.5%, respectively. Moreover, the inhibition at 1 µM in the assay with G401 cells was 30 to 70%; with NCI-H1299 cells, not above 30%; with MIA-PaCa-2 cells it was not above 30%; in the assay on SW-13 cells, 30 to 70%; in the assay with MKN-45 cells, not above 30%; in the assay with Lovo cells, 30 to 70%.

For `CSc1cc(C)[nH]c(=O)c1CNC(=O)c1cc(-c2ccc(CN3CCOCC3)cc2)c2c(c1C)OC(C)([C@H]1CC[C@H](N(C)C)CC1)O2` (relative stereo) [Compound 6, 2-(trans-4-(dimethylamino)cyclohexyl)-2,4-dimethyl-N-((6-methyl-4-(methylthio)-2-oxo-1,2-dihydropyridin-3-yl)methyl)-7-(4-(morpholinomethyl)phenyl)benzo[d][1,3]dioxole-5-carboxamide], the inhibition at 0.005 µM against EZH1 amounted to 86.7%; against EZH2 it was 98.2%. Further, the inhibition at 1 µM with G401 cells was 30 to 70%; with NCI-H1299 cells, not above 30%; with MIA-PaCa-2 cells it was not above 30%; with SW-13 cells, 30 to 70%; with MKN-45 cells it was not above 30%; in the assay with Lovo cells it was 30 to 70%.

Consider `CSc1cc(C)[nH]c(=O)c1CNC(=O)c1cc(-c2ccc3c(ccn3C)c2)c2c(c1C)OC(C)([C@H]1CC[C@H](N(C)C)CC1)O2` (relative stereo) [Compound 7, 2-(trans-4-(dimethylamino)cyclohexyl)-2,4-dimethyl-7-(1-methyl-1H-indol-5-yl)-N-((6-methyl-4-(methylthio)-2-oxo-1,2-dihydropyridin-3-yl)methyl)benzo[d][1,3]dioxole-5-carboxamide], for which the figures for the inhibition at 0.005 µM at EZH1 and on EZH2 were 81.4% and 96%, respectively. The inhibition at 1 µM with G401 cells is 30 to 70%; with NCI-H1299 cells it was not above 30%; in the assay on MIA-PaCa-2 cells, not above 30%; in the assay with SW-13 cells, 30 to 70%; in the assay with MKN-45 cells, 30 to 70%; in the assay with Lovo cells, 30 to 70%.

On to `CSc1cc(C)[nH]c(=O)c1CNC(=O)c1cc(-c2cnc(N3CCC(F)(F)CC3)nc2)c2c(c1C)OC(C)([C@H]1CC[C@H](N(C)C)CC1)O2` (relative stereo) [Compound 8, 7-(2-(4,4-difluoropiperidin-1-yl)pyrimidin-5-yl)-2-(trans-4-(dimethylamino)cyclohexyl)-2,4-dimethyl-N-((6-methyl-4-(methylthio)-2-oxo-1,2-dihydropyridin-3-yl)methyl)benzo[d][1,3]dioxole-5-carboxamide], for which the inhibition at 0.005 µM against EZH1 turned out to be 85.6%; against EZH2, 96.1%. For the same molecule, the inhibition at 1 µM is 30 to 70% in the assay with G401 cells; not above 30% with NCI-H1299 cells; not above 30% in the assay with MIA-PaCa-2 cells; 30 to 70% with SW-13 cells; 30 to 70% in the assay on MKN-45 cells; 30 to 70% in the assay with Lovo cells.

Turning to `CSc1cc(C)[nH]c(=O)c1CNC(=O)c1cc(-c2ccc(N3CCOCC3)cc2)c2c(c1C)OC(C)([C@H]1CC[C@H](N(C)C)CC1)O2` (relative stereo) [Compound 9, 2-(trans-4-(dimethylamino)cyclohexyl)-2,4-dimethyl-N-((6-methyl-4-(methylthio)-2-oxo-1,2-dihydropyridin-3-yl)methyl)-7-(4-morpholinophenyl)benzo[d][1,3]dioxole-5-carboxamide], the inhibition at 0.005 µM at EZH1 was found to be 86.1%; at EZH2 it was 98.6%. Besides, the inhibition at 1 µM in the assay with G401 cells was 30 to 70%; in the assay with NCI-H1299 cells it was not above 30%; in the assay with MIA-PaCa-2 cells it was not above 30%; with SW-13 cells it was 30 to 70%; with MKN-45 cells, not above 30%; with Lovo cells it was 30 to 70%.

Consider `CSc1cc(C)[nH]c(=O)c1CNC(=O)c1cc(-c2ccc(F)cc2)c2c(c1C)OC(C)([C@H]1CC[C@H](N(C)C)CC1)O2` (relative stereo) [Compound 10, 2-(trans-4-(dimethylamino)cyclohexyl)-7-(4-fluorophenyl)-2,4-dimethyl-N-((6-methyl-4-(methylthio)-2-oxo-1,2-dihydropyridin-3-yl)methyl)benzo[d][1,3]dioxole-5-carboxamide], for which the figures for the inhibition at 0.005 µM against EZH1 and against EZH2 were 82.8% and 98.7%, respectively. In addition, the inhibition at 1 µM in the assay on G401 cells is 30 to 70%; in the assay with NCI-H1299 cells it was not above 30%; with MIA-PaCa-2 cells it was not above 30%; with SW-13 cells, 30 to 70%; with MKN-45 cells, not above 30%; in the assay on Lovo cells it was not below 70%.

In the case of `CSc1cc(C)[nH]c(=O)c1CNC(=O)c1cc(-c2ccc(N3C[C@@H](C)O[C@@H](C)C3)nc2)c2c(c1C)OC(C)([C@H]1CC[C@H](N3CC(OC(C)C)C3)CC1)O2` (stereo partly drawn) [Compound 105, 7-(6-((2S,6R)-2,6-dimethylmorpholino)pyridin-3-yl)-2-(trans-4-(3-isopropoxyazetidin-1-yl)cyclohexyl)-2,4-dimethyl-N-((6-methyl-4-(methylthio)-2-oxo-1,2-dihydropyridin-3-yl)methyl)benzo[d][1,3]dioxole-5-carboxamide], the inhibition at 1 µM with G401 cells was 30 to 70%; with NCI-H1299 cells, not below 70%; with MIA-PaCa-2 cells, not below 70%; in the assay on SW-13 cells, not below 70%; in the assay on MKN-45 cells, not below 70%; in the assay with Lovo cells, not below 70%.
